Holding throughout (type): functional
Test [1] deals with Staphylococcus aureus. The experiment in a line: Antimicrobial activity against erythromycin-resistant and rsbUVW-sigB operon deficient Staphylococcus aureus COL by broth microdilution method. On the technique in general: Broth dilution looks for growth in wells or tubes with falling amounts of substance.
For test [2], the system named is Staphylococcus aureus. In words: Antimicrobial activity against erythromycin-resistant, tetracycline-sensitive and yabJ-spoVG operon deficient Staphylococcus aureus COL mutant by broth microdilution method.
The subject of test [3] is Staphylococcus aureus. In words: Antimicrobial activity against erythromycin-, tetracycline resistant and yabJ-spoVG operon deficient Staphylococcus aureus COL by broth microdilution method.
Test [4] relates to Staphylococcus aureus. In words: Antimicrobial activity against methicillin- and tetracycline resistant Staphylococcus aureus COL by broth microdilution method.
Test [5] relates to Staphylococcus aureus. The experiment in a line: Antimicrobial activity against methicillin-resistant and tetracycline-sensitive Staphylococcus aureus COL mutant by broth microdilution method.
Test [6] deals with Staphylococcus aureus. The experiment in a line: Antimicrobial activity against erythromycin-resistant, tetracycline-sensitive and rsbUVW-sigB operon deficient Staphylococcus aureus COL mutant by broth microdilution method.

One may read the MIC as the lowest concentration that inhibits growth of the organism.

Structures are written as SMILES. Values after ≈ are worked out from the molar mass of the structure shown.

With `Cc1onc(-c2ccccc2)c1C(=O)N[C@@H]1C(=O)N2[C@@H]1SC(C)(C)[C@@H]2C(=O)O` [OXACILLIN], the MIC is 256 µg/mL (≈ 638 µM) against Staphylococcus aureus [1]; > 256 µg/mL in the test on Staphylococcus aureus [2]; 128 µg/mL (≈ 319 µM) in the test with Staphylococcus aureus [3]; > 256 µg/mL against Staphylococcus aureus [4]; > 256 µg/mL in the test with Staphylococcus aureus [5]; > 256 µg/mL in the test with Staphylococcus aureus [6].

The values above are taken from ChEMBL document CHEMBL1649170, “Functional characterization of the sigmaB-dependent yabJ-spoVG operon in Staphylococcus aureus: role in methicillin and glycopeptide resistance” (2009).
